Data from patent US20150018311A1, “THERAPEUTIC BORON-CONTAINING COMPOUNDS” (priority 2012, published 2015).

Assays:
Test in all cases: Growth in liquid media in presence of test compound
Format in all cases: cell-based
[1] = test system: Mycobacterium tuberculosis (H37Rv)
[2] = test system: Candida albicans (ATCC 90028)
[3] = test system: Pseudomonas aeruginosa (ATCC 27853)
[4] = test system: Escherichia coli (ATCC 25922)
[5] = test system: Staphylococcus aureus (ATCC 25923)
[6] = test system: Streptococcus pyogenes (ATCC 19615)

Row | Compound | Growth in the presence of test compound, M. tuberculosis ([1]; 5 mg/L) | Growth in the presence of test compound, M. tuberculosis ([1]; 50 mg/L) | Growth in the presence of test compound, M. tuberculosis ([1]; 500 mg/L) | Growth in the presence of test compound, C. albicans ([2]; 5 mg/L) | Growth in the presence of test compound, C. albicans ([2]; 50 mg/L) | Growth in the presence of test compound, C. albicans ([2]; 500 mg/L) | Growth in the presence of test compound, P. aeruginosa ([3]; 5 mg/L) | Growth in the presence of test compound, P. aeruginosa ([3]; 50 mg/L) | Growth in the presence of test compound, P. aeruginosa ([3]; 500 mg/L) | Growth in the presence of test compound, E. coli ([4]; 5 mg/L) | Growth in the presence of test compound, E. coli ([4]; 50 mg/L) | Growth in the presence of test compound, E. coli ([4]; 500 mg/L) | Growth in the presence of test compound, S. aureus ([5]; 5 mg/L) | Growth in the presence of test compound, S. aureus ([5]; 50 mg/L) | Growth in the presence of test compound, S. aureus ([5]; 500 mg/L) | Growth in the presence of test compound, S. pyogenes ([6]; 5 mg/L) | Growth in the presence of test compound, S. pyogenes ([6]; 50 mg/L) | Growth in the presence of test compound, S. pyogenes ([6]; 500 mg/L)
1 | CC1(C)C2CC3OB([C@@H](CNC(=O)[C@H](N)Cc4ccccc4)Cc4ccccc4)O[C@]3(C)C1C2 (stereo partly drawn) [Compound 41] | + | ± | ± | + | ± | ± | + | + | + | + | + | + | + | + | ± | + | + | ±
2 | N[C@@H](Cc1ccccc1)C(=O)NC[C@@H](Cc1ccccc1)[B-](F)(F)F.[K+] [Compound 42] | + | − | − | + | ± | ± | + | + | + | + | + | + | + | + | + | + | + | ±
3 | Cl.Cl.NCCCC[C@@H](N)C(=O)NC[C@@H](Cc1ccc(OC(F)(F)F)cc1)B(O)O [Compound 43] | + | + | − | + | + | ± | + | + | − | + | + | − | + | + | − | + | + | −
4 | CC1(C)C2CC3OB(CC(Cc4ccccc4)NC(=O)C(N)CCCCN)OC3(C)C1C2 (stereo not drawn) [Compound 44] | + | + | − | + | + | ± | + | + | − | + | + | − | + | + | − | + | + | −
5 | CC1(C)C2CC3OB(C[C@@H](Cc4ccccc4)NC(=O)[C@H](Cc4ccccc4)NC(=O)[C@@H](N)Cc4ccccc4)O[C@]3(C)C1C2.Cl (stereo partly drawn) [Compound 45] | + | − | + | + | + | − | + | + | + | + | + | + | + | ± | + | + | + | +
6 | Cl.Cl.NCCCC[C@H](N)C(=O)NC[C@@H](Cc1ccc(F)cc1)B(O)O [Compound 46] | − | − | − | + | + | ± | + | + | + | + | + | + | + | + | + | + | + | +
7 | CC1(C)C2CC3OB(C(CNC(=O)C(N)CCCCN)Cc4ccc(OC(F)(F)F)cc4)OC3(C)C1C2.Cl.Cl (stereo not drawn) [Compound 47] | + | − | − | + | + | − | + | + | − | + | + | − | + | + | − | + | + | −
8 | Cl.Cl.NCCCC[C@@H](N)C(=O)NC[C@@H](Cc1ccccc1)B(O)O [Compound 48] | ± | − | − | + | + | + | + | + | + | + | + | + | + | + | + | + | + | +
